Literature values, collected in patent US10143669B2, “Use of short chain fatty acids in cancer prevention” (Temple University-Of The Commonwealth System of Higher …, priority 2015, dated 2018).

Experiments:
HBx transgenic mice = conditions: Arzumanyan A et al., Cancer Res, 2012
established tumor = conditions: Bindels L B et al., Br J Cancer, 2012
[1] = tested on: Hepatocellular carcinoma (HCC); conditions: Peck-Radosavljevic M, Liver Cancer, 2014

## CS(=O)(=O)c1ccc(C(=O)Nc2ccc(Cl)c(-c3ccccn3)c2)c(Cl)c1 [GDC-0449]
HBx transgenic mice
  number and size of tumors in HBx transgenic mice: decreased the number and size of tumors

## CCC(=O)O [proprionate]
Established tumor
  growth of an established tumor: reduce the growth

## CNC(=O)c1cc(Oc2ccc(NC(=O)Nc3ccc(Cl)c(C(F)(F)F)c3)cc2)ccn1 [sorafenib]
[1]
  life expectancy extended, average: 3 months
